Results published in patent US20180028594A1, “[…] OPIOID RECEPTOR AGONISTS FOR HARD TISSUE PAIN” (Cara Therapeutics, Inc., priority 2014, published 2018).

Columns and labels:
[1] = tested on: postoperative pain (hard tissue surgery); conditions: human, in vivo
[2] = tested on: acute and chronic visceral, inflammatory and neuropathic pain; experiment: Standard preclinical pain models, onset and duration of analgesic effect; assay type: in vivo
Experimental: (§1) In standard preclinical pain models, CR845 successfully attenuated acute and chronic visceral, inflammatory and neuropathic pain in a dose-dependent manner (see Table 1, below). The analgesic effect of CR845 was recordable within 15 minutes post-administration and lasted for up to 18 hours following single-dose administration.

mechanical hyperalgesia [3] = experiment: Carrageenan, acute inflammatory pain model; assay type: in vivo; conditions: Rat
Experimental: as §1

[4] = tested on: Somatic and visceral pain; experiment: Acetic Acid Writhing, somato-visceral inflammatory pain model; assay type: in vivo; conditions: Mouse
Experimental: as §1

[5] = Phase 1 clinical trials, safety and sedation (Ramsey Sedation Scale); assay type: in vivo, human
Text: The most common TEAEs across evaluated populations were transient facial tingling or numbness, dizziness, fatigue and a transient increase in urine output in the absence of electrolyte loss, or aquaresis. […] No other changes in vital signs, including supine pulse rate, blood pressure, respiratory rate, oral body temperature, or oxygen saturation were reported, nor were any clinically significant changes observed in electrocardiogram characteristics. Additionally, the CNS adverse events characteristic of prior-generation CNS-active kappa agonists, such as acute psychiatric side effects, were not observed with CR845. The potential to cause sedation was assessed using the Ramsey Sedation Scale in the ascending dose-tolerance Phase 1 trial (Study 2048-001) of I.V. CR845, which included 54 subjects (17 on placebo; 37 on CR845).

[6] = Pharmacokinetic studies, drug in extracted brain tissue; assay type: in vivo; conditions: animals, analgesic and supra-analgesic doses
mechanical hyperalgesia [7] = experiment: Complete Freund's Adjuvant, chronic inflammatory pain model; assay type: in vivo; conditions: Rat
Experimental: as §1

tactile allodynia = experiment: L5/6 Spinal Nerve Ligation (Chung Model) of neuropathic pain; assay type: in vivo, Rat
Experimental: FIG. 1: Efficacy of CR845 in “Chung Model” of neuropathic pain is blocked with Peripheral (Intrapaw) administration of a kappa antagonist (norBNI) in rats. *** denotes p<0.001. compared to vehicle-treated controls (two-way ANOVA). Vehicle or Nor-BNI was administered intraplantarly (0.2 mg) 15 min prior to CR845. Injection (1 mg/kg). N=6 male rats/group, mean±SEM.
The peripheral mechanism of action of CR845 is supported preclinically by both biochemical in vitro assays and in vivo functional pharmacological studies. […] Moreover, in standard preclinical pain models, such as the “Chung Model” of neuropathic pain, the analgesic action of CR845 was blocked with kappa opioid receptor antagonists administered directly to the local site of injury, indicating a peripheral site of action for CR845 (FIG. 1). In the “Chung Model”, neuropathic pain is induced experimentally by ligating spinal nerves mediating sensation for a hind limb. […] Sets of different thickness filaments are used to test sensitivity, each of which is designed to produce a given force (in grams) upon bending after contact. By testing with these filaments, the minimum force to evoke a withdrawal response defines the paw withdrawal threshold. The nerve injury produces a marked reduction in paw withdrawal thresholds (increased sensitivity to force) in response to probing with the filaments.

[8] = tested on: postoperative pain (soft tissue surgery); conditions: human, in vivo
[9] = tested on: pro-inflammatory mediators; experiment: Production and release of pro-inflammatory mediators

With CC(C)C[C@@H](NC(=O)[C@@H](Cc1ccccc1)NC(=O)[C@H](N)Cc1ccccc1)C(=O)N[C@H](CCCCN)C(=O)N1CCC(N)(C(=O)O)CC1 [CR845, D-Phe-D-Phe-D-Leu-D-Lys-[ω(4-aminopiperidine-4-carboxylic acid)]—OH] the “Acute psychiatric side effects” value [1] was “no evidence of acute psychiatric side effects”, the “Mean PID from baseline relative to placebo across 48 hour trial period” value [1] was “numerically superior” and the “Most frequent TEAEs (greater than 10%)” value [1] was “transient facial tingling and somnolence”. For the same compound, the “Reduction of incidence of nausea compared to placebo” value [1] was 60%, the “Reduction of incidence of vomiting compared to placebo” value [1] was 80% and the “SPID scores 0-24, 0-36, 0-48 compared to placebo” value [1] was “Numerical improvements”. The “Rise of mean plasma sodium concentration from baseline” value ([1]; iv, 0.005 mg/kg) was “approximately 3%”, the “SPID0-24 compared to placebo” value ([1]; iv, 0.005 mg/kg) was “statistically significant reduction in pain intensity” and the “SPID0-36 compared to placebo” value ([1]; iv, 0.005 mg/kg) was “statistically significant”. The “SPID0-48 compared to placebo” value ([1]; iv, 0.005 mg/kg) was “statistically significant”, the “Time at which analgesic effect was recordable post-administration” value [2] was ≤ 15 min and the “Duration of analgesic effect following single-dose administration” value ([2]; single dose) was “up to 18 hours”. For the same compound, the “Duration of Action” value (mechanical hyperalgesia [3]) was >1 h, the “ED50 (I.V., mg/kg)” value (mechanical hyperalgesia [3]; I.V., mechanical hyperalgesia) was 0.3 mg/kg and the “Duration of Action” value [4] was >18 h. The “ED50 (I.V., mg/kg)” value ([4]; I.V.) was 0.07 mg/kg, the “Sedation, Ramsey Sedation Scale” value ([5]; ascending dose-tolerance Phase 1 trial (Study 2048-001), I.V., healthy subjects) was “did not cause sedation” and the Tolerability ([5]; four Phase 1 clinical trials) was “generally well tolerated”. The “Concentration of drug in extracted brain tissue” value [6] was “no measurable concentrations”, the “Duration of Action” value (mechanical hyperalgesia [7]) was >2 h and the “ED50 (I.V., mg/kg)” value (mechanical hyperalgesia [7]; I.V., mechanical hyperalgesia) was 0.08 mg/kg. For the same compound, the “ED50 (I.V., mg/kg)” value (tactile allodynia; Rat, I.V., L5/6 Spinal Nerve Ligation, tactile allodynia) was 0.3 mg/kg, the “Duration of Action” value (tactile allodynia; Rat, L5/6 Spinal Nerve Ligation) was >8 h and the Paw withdrawal threshold (tactile allodynia; rats, I.V. CR845 1 mg/kg, Chung Model) was “increase in the withdrawal threshold”. The “Greater reduction in pain intensity (PID) at 24 hours compared to Placebo/Placebo” value [8] was “approximately 60%”, the “Improvement in mean SPID values 0-4 hour compared to Placebo/Placebo” value [8] was 3.5 fold and the “Incidence of nausea, patients” value [8] was 26.1%. For the same compound, the “Incidence of vomiting, patients” value [8] was 1.7%, the “Mean TOTPAR0-2, pain relief within first 2 hours compared to Placebo/Placebo” value [8] was “statistically superior pain relief” and the “Percentage of patients characterized as Responders (global evaluation of study medication) compared to placebo” value [8] was “higher percentage”. For the same compound, the “Pruritus reported compared to placebo” value [8] was “less pruritus”, the “Reduction of incidence of nausea versus placebo” value [8] was “approximately 50%” and the “Reduction of incidence of vomiting versus placebo” value [8] was ~80%. The “SPID over 0-8, 0-12 and 0-16 time periods compared to Placebo/Placebo” value [8] was “reduced pain intensity”, the “Blood sodium increase (hypernatremia), of total patients” value ([8]; iv, 0.04 mg/kg) was 14% and the “Production and release of pro-inflammatory mediators” value [9] was “decreased the production and release of pro-inflammatory mediators”.
For Oc1ccc2c3c1O[C@H]1c4[nH]c5c(c4C[C@@]4(O)[C@@H](C2)N(CC2CC2)CC[C@]314)C[C@@]1(O)[C@H]2Cc3ccc(O)c4c3[C@@]1(CCN2CC1CC1)[C@H]5O4 [nor-BNI, nor-binaltorphamine, reference compound], the “Effect of kappa antagonist on efficacy of CR845” value (tactile allodynia; rats, 0.2 mg intraplantar into injured paw 15 min prior to CR845 1 mg/kg) was “significantly reduces the effect of CR845”.
